13 compounds from paper PMC11758220, “Identification of a Privileged Scaffold for Inhibition of Sterol Transport Proteins through the Synthesis and Ring Distortion of Diverse, Pseudo-Natural Products” (ACS Central Science, 2025) can be followed below.

What is called IC50 is the concentration needed to halve the response being measured. Lower therefore signals inhibition by little substance. What is called inhibition is the drop in the measured response relative to a control, in per cent.

One experiment deals with T1, Aster-C (Homo sapiens, UniProt Q8IYS0).
T1 construct: -C(318-504); GST (PreScission-cleavable) (N, cleaved yes); made in house; host or cells: E. coli OverExpress C41
Description: Fluorescence polarisation (FP) competition with NBD-cholesterol, Aster-C. Format: binding. Conditions: for IC50: mean of three experiments run in technical duplicates; for inhibition at 10 µM / Aster-C (FP) inhibition: single dose, Dose = 10 µM. From the text:
(§1) Protein expression constructs
(§2) Human ASTER domains of Aster-A(359-547), -B(364-552) and -C(318-504) were subcloned into a pGEX-6p-2rbs vector, thus introducing the cloning artifact ‘GPLGS’.3 The pGEX-6P-1-GST-OSBP(377- […]
(§3) a gift from James H. Hurley (University of California).4 The pHIS_2His6_Thrombin_STARD4(2-205;C75S) plasmid was a gift from Young Jun Im (Chonnam National University).5 STARD5A was a gift from Nicola Burgess-Brown (Addgene plasmid #42392; http://n2t.net/addgene:42392; […]
(§4) Protein expression and purification […]
(§5) vectors including an N-terminal PreScission-cleavable glutathione S-transferase (GST)-tag were expressed in Escherichia coli (E. coli) OverExpress C41 in Terrific Broth (TB) medium for 16 h at 18 °C after the induction with 0.1 mM isopropyl β-D-1-thiogalactopyranoside (IPTG). Cells were harvested at 3500 × g for 15 minutes and lysed by sonication in buffer containing 50 mM HEPES pH 7.5, 300 mM NaCl, 10 %v/v glycerol, 5 mM dithiothreitol (DTT), 0.1 %v/v Triton X-100 and protease inhibitor mix HP plus (Serva). The lysate was purified by affinity chromatography on a GSTrap FF column (Cytiva) using an ÄKTA Start (Cytiva) in buffer containing 50 mM HEPES pH 7.5, 300 mM NaCl, 10 %v/v glycerol, 5 mM DTT and 0.01 %v/v Triton X-100. The GST-tag was cleaved overnight on the column at 4 °C. The Aster sterol binding domains were further purified by size-exclusion chromatography (SEC) on a HiLoad 16/600 Superdex 75 pg (Cytiva) in buffer containing 20 mM HEPES pH 7.5, 300 mM NaCl, 10 %v/v […]
(§6) STARD5(6-213) harboring an N-terminal His6-Tag were expressed in E. coli BL21(DE3) in Luria-Bertani Broth (LB) medium for approximately 16 h at 18 °C after induction with 0.15 mM IPTG. Cells were harvested at 3500 × g for 15 minutes and lysed by sonication in buffer containing 50 mM HEPES pH 7.5, 150 mM NaCl, 5 %v/v glycerol, 5 mM DTT, 0.1 %v/v Triton X -100 and ethylenediaminetetraacetic acid (EDTA)-free protease inhibitor cocktail (Sigma-Aldrich). The cleared lysate was purified by affinity chromatography on a Ni-NTA Superflow Cartridge (Qiagen) using an ÄKTA Start (Cytiva) in buffer containing 50 mM HEPES pH 7.5, 150 mM NaCl, 5 %v/v glycerol, 5 mM DTT. START domains were eluted by using elution buffer containing 50 mM HEPES pH 7.5, 150 mM NaCl, 5 %v/v glycerol, 5 mM DTT and 500 mM imidazole. Proteins were further purified by SEC on a HiLoad 16/600 Superdex 75 pg (Cytiva) in buffer containing 20 mM HEPES pH 7.5, 150 mM NaCl, 5 %v/v glycerol and 2 mM DTT.
(§7) The ORP domain of human OSBP(377-807) in the pGEX-6p-1 vector with an N-terminal PreScission-cleavable GST-tag was expressed in E. coli OverExpress C41 in LB medium for 16 h at 18 °C after induction with 0.1 mM IPTG. Cells were harvested at 3500 × g for 15 minutes and lysed by sonication in buffer containing 20 mM HEPES pH 7.5, 300 mM NaCl, 10 %v/v glycerol, 5 mM DTT, 0.1 %v/v Triton X-100 and EDTA-free protease inhibitor cocktail (Sigma-Aldrich). The cleared lysate was purified by affinity chromatography on a GSTrap HF column (Cytiva) using an ÄKTA Start (Cytiva) in buffer containing 20 mM HEPES pH 7.5, 300 mM NaCl, 10 %v/v glycerol, 5 mM DTT. OSBP(377 -807) was eluted by using elution buffer containing 20 mM HEPES pH 7.5, 300 mM NaCl, 10 %v/v glycerol, 5 mM DTT and 10 mM reduced glutathione. Proteins were further purified by SEC on a HiLoad 16/600 Superdex 75 pg (Cytiva) using an ÄKTA Explorer (Cytiva) in buffer containing 20 mM HEPES pH 7.5, 150 mM NaCl, 10 %v/v glycerol and 2 mM DTT.
(§8) The ORP domains of human ORP1(534-950) in pET24b(+) and ORP2(49-480) in the pET24b(+) vector including an N-terminal His6-Tag were expressed in E. coli BL21(DE3) in TB medium for approximately 16 h at 18 °C after induction with 0.1 mM IPTG. Cells were collected at 3500 × g for 15 minutes and lysed by sonification in buffer containing 10 mM Tris-HCl pH 8, 300 mM NaCl, 5 % glycerol, 2 mM DTT, 0.1 % Triton X-100 and EDTA-free protease inhibitor cocktail (Sigma-Aldrich). The cleared […]
(Polarisation of emitted light reports the rotation of a fluorescent probe.)

The next experiment addresses T2, OSBP (Homo sapiens, UniProt P22059).
T2 construct: OSBP(377-807); host or cells: E. coli OverExpress C41
T2 sequence (P22059 377-807): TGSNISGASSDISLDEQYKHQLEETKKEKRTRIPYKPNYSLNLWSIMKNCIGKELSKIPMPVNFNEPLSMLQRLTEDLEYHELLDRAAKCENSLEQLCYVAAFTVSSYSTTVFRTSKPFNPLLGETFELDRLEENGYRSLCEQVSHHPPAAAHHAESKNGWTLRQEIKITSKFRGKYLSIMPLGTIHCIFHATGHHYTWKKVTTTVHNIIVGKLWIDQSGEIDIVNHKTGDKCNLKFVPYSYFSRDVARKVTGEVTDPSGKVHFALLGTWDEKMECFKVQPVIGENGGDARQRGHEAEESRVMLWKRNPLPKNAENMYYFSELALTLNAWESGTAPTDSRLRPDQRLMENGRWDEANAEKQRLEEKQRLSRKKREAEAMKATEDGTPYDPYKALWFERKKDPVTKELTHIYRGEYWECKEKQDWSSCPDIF
Description: Fluorescence polarisation (FP) competition with NBD-cholesterol, OSBP. It counts as binding. Particulars: single dose; for OSBP (FP) inhibition: Dose = 10 µM.
Text: as §1, §2, §3, §4, §5, §6, §7, §8

T1 sequence (Q8IYS0 318-504): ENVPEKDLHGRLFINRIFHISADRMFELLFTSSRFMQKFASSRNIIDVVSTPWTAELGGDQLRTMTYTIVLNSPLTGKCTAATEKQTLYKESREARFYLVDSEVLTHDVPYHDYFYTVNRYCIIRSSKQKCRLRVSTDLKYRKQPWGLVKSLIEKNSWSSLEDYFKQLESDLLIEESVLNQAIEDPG

In the case of `CC12CCC3CC1CCC21C(=Nc2c(Br)cc(C(F)(F)F)cc21)O3` (stereo not shown) [Compound 15h], at Aster-C, the IC50 is > 80 µM and the inhibition at 10 µM came out at 0%. Further, on OSBP, the inhibition at 10 µM came to 10%.

For `C[C@]12CC[C@@H](O)C[C@H]1CCc1sc(-c3cccnc3)nc12` [Compound 8c], at Aster-C, the “Aster-C (FP) inhibition” value is listed as 0%. For the same compound, the “OSBP (FP) inhibition” value at OSBP is recorded as 17.3%.

Regarding `C[C@]12CC[C@@H](O)C[C@H]1CCc1nc3cc(F)c(F)cc3nc12` [Compound 7c], on Aster-C, the “Aster-C (FP) inhibition” value is on record as -4%. Also, the “OSBP (FP) inhibition” value on OSBP came to 8.0%.

Consider `C[C@]12CC[C@@H](O)C[C@H]1CCc1c2nc2ccccc2c1-c1ccc(F)cc1` [Compound 2d], for which the inhibition at 10 µM on Aster-C is -2.4%; at OSBP, 0%.

Take `C[C@]12CC[C@@H](O)C[C@H]1CCc1c2nc2ccccc2c1-c1ccccc1` [Compound 2b]: the “Aster-C (FP) inhibition” value at Aster-C is -5.6%. Further, the “OSBP (FP) inhibition” value on OSBP is given as -12.0%.

As for `C[C@]12CC[C@@H]3C[C@H]1CC[C@@]21C(=Nc2c(F)cc(Cl)cc21)O3` [Compound 15i], the IC50 at Aster-C is > 80 µM. Moreover, the inhibition at 10 µM at Aster-C was -1.6%; on OSBP it was 8.3%.

For `CC12CCC3CC1CCC21C(=Nc2ccc(N4CCOCC4)cc21)O3` (single isomer, unassigned; (-)) [(−)-19a], on Aster-C, the 50% inhibitory concentration (IC50) is > 80 µM and the “Aster-C (FP) inhibition” value is reported as -1.6%. Besides, the “OSBP (FP) inhibition” value at OSBP came out at 6.2%.

On to `C[C@]12CC[C@@H]3C[C@H]1CC[C@@]21C(=Nc2ccc(C(F)(F)F)cc21)O3` [Compound 15g], for which, at Aster-C, the IC50 was > 80 µM. For the same compound, the inhibition at 10 µM is -0.8% at Aster-C and 16% on OSBP.

In the case of `C[C@]12CC[C@@H](O)C[C@H]1CCc1nc3cc(Br)c(Br)cc3nc12` [Compound 7e], the “Aster-C (FP) inhibition” value on Aster-C is reported as 1.6%. Also, the “OSBP (FP) inhibition” value at OSBP worked out at 3.0%.

As for `COc1ccc(-c2ccc3c(c2)C24CCC5CC(CCC52C)OC4=N3)cc1` (stereo not shown) [Compound 21b], the half-maximal inhibitory concentration (IC50) on Aster-C was > 80 µM. For the same compound, the inhibition at 10 µM was -3.2% at Aster-C and 17.5% on OSBP.

With `CCCCCNc1ccc2c(c1)[C@@]13CC[C@@H]4C[C@@H](CC[C@@]41C)OC3=N2` [Compound 19c], on Aster-C, the half-maximal inhibitory concentration (IC50) is > 80 µM and the inhibition at 10 µM amounted to 1.6%. Moreover, the inhibition at 10 µM on OSBP stood at 18.6%.

Take `C[C@]12CC[C@@H](O)C[C@H]1CCC[C@]21NC(=O)c2ccc(F)cc2N1` [Compound 5b]: at Aster-C, the “Aster-C (FP) inhibition” value is -4% and the inhibition at 10 µM was -1.6%. In addition, at OSBP, the inhibition at 10 µM turned out to be 8.2% and the “OSBP (FP) inhibition” value is on record as 24.6%.

For `C[C@]12CC[C@@H](O)C[C@H]1CCc1c2[nH]c2c(F)cc(Cl)cc12` [Compound 10i], the inhibition at 10 µM on Aster-C was -1.6%; on OSBP, -9.3%.
